Test results published in patent US20080206149A1, “METHOD, DYE AND MEDICAMENT FOR STAINING THE INTERNAL LIMITING MEMBRANE, EPIRETINAL MEMBRANE, THE VITREOUS AND/OR THE CAPSULE OF AN EYE” (LUDWIG-MAXIMILIANS-UNIVERSITAT MUNCHEN, priority 2005, published 2008).

Experiments:
lens capsule [1] = assay: Staining of lens capsule removed during intraocular surgery; settings: concentrations of 0.5% or less; dye removed after one minute
Description: (§1) The following four dyes were examined as examples for the inventive dyes in the present study: Light green yellowish SF (LG SF), E68, Bromophenol blue (BPB) and Chicago blue (CB). ICG (Pulsion, Munich, Germany) was used as a reference. All dyes were dissolved and diluted with balanced salt solution (BSS plus; Alcon Laboratories Inc., Fort Worth, Tex.) and concentrations of 1.0, 0.5, 0.2 and 0.05% were obtained. Dry ICG powder was first dissolved with sterile water provided by the manufacturer resulting in a 0.5% solution and then further diluted using BSS plus to a concentration of 0.05%. The dyes were then used to stain lens capsule and epiretinal membranes removed during intraocular surgery. Immediately after removal, the material was placed on a glass slide and covered with a few drops of the dye. After one minute, the dye was carefully removed by irrigation using BSS plus. Lens capsule and epiretinal tissue was then evaluated macroscopically and using light microscopy. The staining effect was subjectively graded as “excellent, good, fair or absent” by one unmasked person and photographs were taken.

primary RPE cells [2] = assay: Life-dead assay (propidium iodide / Hoechst 33342), primary RPE cells; type: cell-based
Description: Invest Ophthalmol Vis Sci 2002; 43: 3575-82.
(§2) Confluent RPE and ARPE-19 cells were prepared and treated as described above. Cell viability was quantified based on a two-color fluorescence assay in which the nuclei of nonviable cells appear red because of staining by the membrane-impermeable dye propidium iodide (Sigma), whereas the nuclei of all cells were stained with the membrane-permeable dye Hoechst 33342 (Intergen, Purchase, N.Y.). […] For evaluation of cell viability, cells were washed in PBS and incubated with 2.0 μg/mL propidium iodide and 1.0 μg/mL Hoechst 33342 for 20 minutes at 37° C. Subsequently, cells were analyzed with an epifluorescence microscope (Axioskop; Zeiss, Göttingen, Germany). The labeled nuclei were then counted in fluorescence photomicrographs, and dead cells were expressed as a percentage of total nuclei in the field. The data are based on counts from three experiments performed in duplicate wells, with three to five documented representative fields per well.

ARPE-19 cells [3] = assay: MTT assay, ARPE-19 cells; settings: 0.2% and 0.02% dye, 10 minutes exposure, compared to BSS plus control
Description: ARPE-19 cells, a human retinal pigment epithelial cell line (42), were purchased from ATCC (Manassas, Va., USA) and grown in a 1:1 mixture of Dulbecco's modified Eagles medium and Ham's F12 medium (DMEM/Ham's F12, Biochrom), supplemented with 10% FCS (Biochrom).
For exposure of dyes RPE and ARPE-19 cells were kept for 24 hours under serum free conditions. After washing cells three times with PBS, cells were incubated for 10 minutes with 300 μl of BSS plus containing 0.2% or 0.02% of dye, respectively. […] The dye was then removed by carefully rinsing cells with BSS plus three times. After 24 hours incubation with serum containing media the cell proliferation assay was performed. RPE cells (p3-6) were seeded in 24-well plates and exposed to two concentrations (0.2 and 0.02%) of dyes. BSS plus alone and H2O2, (200 μL/mL) served as controls.
The tetrazolium dye-reduction assay (MTT; 3-[4,5-dimethylthiazol-2-yl]-2,5-diphenyl tetrazolium bromide;) was used to determine cell survival rate. […] The medium was removed, cells were washed with PBS, and 1000 μL/well MTT solution (1.5 mL MTT stock, 2 mg/mL in PBS, plus 28.5 mL DMEM) was added. RPE cells were incubated at 37° C. for 1 hour. The formazan crystals that formed were dissolved by the addition of dimethyl sulfoxide (DMSO; 1000 μL/well). Absorption was measured by a scanning multiwell spectrophotometer at 550 nm (Molecular Probes, Garching, Germany). […] Experiments were performed in triplicate and repeated three times. RPE and ARPE-19 cells of the same passage incubated with BSS without addition of dyes served as control. Statistical comparison between dye concentrations was performed with SPSS (Mann-Whitney-U-Test).
The MTT test as performed in this study is a well established test for the assessment of cell viability, but relies on calorimetric measurement of a blue (550 nm) formazan reaction product. This color overlaps with the absorption spectra of some of the dyes tested. […] Cell monolayers were treated with dyes as per the experiments described above but absorbance readings were performed without prior application of MTT. […]

lens capsule [4] = assay: Staining of the lens capsule in enucleated porcine eyes; settings: injected into air-filled anterior chamber, removed after one minute; clear porcine lens as background
Description: Additionally, the staining characteristics of the lens capsule in enucleated porcine eyes with a postmortem time of nine hours were evaluated. The dyes were injected into the air-filled anterior chamber and removed by irrigation after one minute. Then, the cornea was removed and a capsulorhexis was performed with a bent needle. All procedures were taped on video.

vitreous = assay: Staining of the vitreous during pars plana vitrectomy in porcine eyes; type: in vivo; settings: graded by two examiners
Description: All dyes were dissolved and diluted using balanced salt solution (BSS plus; Alcon Laboratories Inc., Fort Worth, Tex).
Experiments were performed in animals (porcine eyes) and humans after approval of the local ethics committee had been obtained. All experiments were performed in compliance with the Declaration of Helsinki.
Ophthalmic surgery consisted of a standard pars plana vitrectomy. First, the transparent vitreous was removed as completely as possible. Then fluid air exchange was performed in order to avoid an uncontrolled distribution of the dye in the vitreous cavity. The dye was then injected into the air filled globe. After a period of one minute, the dye was washed out by irrigation with BSS. This was followed by an injection of the dye in concentrations from 0.2% to 2%. The staining of the vitreous was graded by two examiners who also performed the surgical procedures.

ARPE-19 cells [5] = assay: Life-dead assay (propidium iodide / Hoechst 33342), ARPE-19 cells; type: cell-based
Description: as §2

primary RPE cells [6] = assay: MTT assay, primary RPE cells; settings: 0.2% and 0.02% dye, 10 minutes exposure, compared to BSS plus control
Description: In brief, whole eyes were thoroughly cleansed in 0.9% NaCl solution, immersed in 5% polyvinyl pyrrolidone iodine, and rinsed again in the sodiumchloride solution. The anterior segment from each donor eye was removed and the posterior poles were examined with the aid of a binocular stereomicroscope to confirm the absence of gross retinal disease. Next, the neural retinas were carefully peeled away from the RPE-choroid-sclera using fine forceps. The eye cup was rinsed with Ca^2+ and Mg^2+-free Hank's balanced salt solution, and filled with 0.25% trypsin (GIBCO, Karlsruhe, Germany) for 30 min at 37° C. The trypsin was carefully aspirated and replaced with Dulbecco's modified eagles medium (DMEM, Biochrom, Berlin, Germany) supplemented with 20% fetal calf serum (FCS, Biochrom). Using a pipette, the media was gently agitated, releasing the RPE into the media by avoiding damage to Bruch's membrane. The RPE cell solution was transferred to a 50 ml flask (Falcon, Wiesbaden, Germany) containing 20 ml of DMEM (Biochrom) supplemented with 20% FCS (Biochrom) and maintained at 37° C. and 5% carbon dioxide. […] After having grown to confluency (100%), primary RPE cells were subcultured and maintained in DMEM (Biochrom) supplemented with 10% FCS (Biochrom) at 37° C. and 5% carbon dioxide. Primary RPE of passage 3-6 and ARPE-19 cells were used for experiments.
For exposure of dyes RPE and ARPE-19 cells were kept for 24 hours under serum free conditions. After washing cells three times with PBS, cells were incubated for 10 minutes with 300 μl of BSS plus containing 0.2% or 0.02% of dye, respectively. […] The dye was then removed by carefully rinsing cells with BSS plus three times. After 24 hours incubation with serum containing media the cell proliferation assay was performed. […]
The tetrazolium dye-reduction assay (MTT; 3-[4,5-dimethylthiazol-2-yl]-2,5-diphenyl tetrazolium bromide;) was used to determine cell survival rate. […] Absorption was measured by a scanning multiwell spectrophotometer at 550 nm (Molecular Probes, Garching, Germany). […]

[7] = tested on: epiretinal membranes (ERM); assay: Staining of epiretinal membranes removed during intraocular surgery; settings: concentration of 1%; dye removed after one minute
Description: as §1

[8] = Light absorbing properties (UV/VIS/NIR spectrometer); type: physicochemical; settings: measured up to a content of 0.05% dye
Description: Light absorption was measured in 0.05% solutions, with BSS plus as a solvent medium. Light absorption was measured instantly after preparation of a stock solution of the dye using a UV/VIS/NIR Spectrometer (Lambda 900, Perkin Elmer) between 200 and 1000 nm.

| Molecule | staining effect in removed lens capsule material (lens capsule [1]) | cell viability, nuclei of nonviable cells labeled with propidium iodide (primary RPE cells [2]) | toxicity of 0.02% in comparison to the 0.2% dye solution (primary RPE cells [2]) | cell survival of ARPE-19 cells (MTT) (ARPE-19 cells [3]) | staining of the lens capsule in porcine eyes (lens capsule [4]) | staining effect of the vitreous (vitreous; dye concentration 0.2%) | staining effect of the vitreous (vitreous; dye concentration 2.0%) | cell viability, nuclei of nonviable cells labeled with propidium iodide (ARPE-19 cells [5]) | toxicity of 0.02% in comparison to the 0.2% dye solution (ARPE-19 cells [5]) | cell survival of primary RPE cells (MTT) (primary RPE cells [6]) | staining of ERM [7] | position of the long wavelength maximum, influence of dye concentration [8] |
| --- | --- | --- | --- | --- | --- | --- | --- | --- | --- | --- | --- | --- |
| CCN(Cc1cccc(S(=O)(=O)O)c1)c1ccc(C(=C2C=CC(=[N+](CC)Cc3cccc(S(=O)(=O)O)c3)C=C2)c2ccc(S(=O)(=O)O)cc2)cc1.[Na+].[Na+] [Light green SF] | did not stain lens capsule sufficiently | significantly affect cell viability | far less toxic | no significant impact on cell survival | weak staining effects | strong | strong | significantly affect cell viability | far less toxic | no influence on cell survival | weak staining | not influenced by the dye concentration |
| Chicago blue |  | significantly affect cell viability |  | no significant impact on cell survival | stained well | weak | strong | significantly affect cell viability |  | no influence on cell survival |  | not influenced by the dye concentration |
| Copperphtalocyanine-3,4′,4″,4′″-tetrasulphonic acid tetrasodium salt [E68] |  | did not affect cell survival |  |  | stained well | weak | strong | did not affect cell survival |  |  |  |  |
